Experimental data: ChEMBL document CHEMBL5727769, “Tricyclic fused derivatives of 1-(cyclo)alkyl pyridin-2-one useful for the treatment of cancer” (2020)

Target: Bromodomain-containing protein 4 (Homo sapiens, UniProt O60885)
Assay: AlphaLISA Assay: Compounds were diluted by step-down dilution method (final concentration of DMSO was 1%) and added to the wells of a 384 well opti plate at desired concentrations. 5 nM BDR4-BD1 enzyme (produced in-house) and 12 nM of biotinylated substrate were added to the wells, covered and incubated at room temperature (RT) for 1 h. At the end of 1 h 250 ng of GSH acceptor beads were added to the well and incubated for 1 h at RT; then 500 ng of streptavidin donor beads were added and incubated again for 1 h at RT. Plates were read in a Pherastar reader at 680 nm excitation and 570 nm emission

IC50: 1.6 nM
Compound: CCNC(=O)CC1N=C(c2ccc(Cl)cc2)c2cc(OC)ccc2-c2cn(C)c(=O)cc21 (racemic)
